Measured values from paper PMC5612938, “A multiple biomarker assay for quality assessment of botanical drugs using a versatile microfluidic chip” (Scientific Reports, 2017).

Target: T1, Thrombin (from human plasma) (Homo sapiens, UniProt P00734)
T1 construct: Thrombin (from human plasma); purchased Sigma-Aldrich; host or cells: human plasma
Assay: on-chip thrombin inhibition assay (S-2238 hydrolysis, absorbance 405 nm)
Assay type: biochemical
Conditions: for thrombin inhibition (in words): at tested concentrations
Experimental: To enhance the performance of the on-chip assay, experimental parameters such as concentrations of enzymes and substrates, substrate reaction time, and incubation time of samples and enzymes were stepwise optimized. The activity of thrombin was determined by measuring the hydrolysis of chromogenic substrate S-2238 (HD-Phe-Pip-Arg-pNA) at 405 nm. As depicted in Fig. 2a, the absorbance increased rapidly along with the elevated concentrations of thrombin, while it reached a plateau at 0.5 U/mL. […] Moreover, it was clear from Fig. 2d that the maximum inhibitory effect of QSYQ sample (I1 of Table 1 in this assay) on thrombin was observed after 60 min of incubation. Therefore, to achieve favorable response and prevent signal saturation, optimal assay conditions for thrombin were determined to be 0.2 U/mL, 0.31 mM, 30 min and 60 min for the final concentrations of thrombin and S-2238, substrate reaction time and incubation time, respectively. […] In this assay, the concentrations of ACE and FAPGG were finally set at 0.027 U/mL and 0.72 mM, where the background value was lower and the reaction time was relatively shorter (30 min).
The optimized protocol was first applied to assess the quality of 11 batches of QSYQ intermediates (Table 1). Enzyme inhibition (in percentages) was employed as an indicator of drug quality and calculated according to the following equations: thrombin inhibition (%) = [1 − (AQSYQ/Ablank)] × 100; ACE inhibition (%) = [1 − (ΔAQSYQ/ΔAblank)] × 100; where AQSYQ and Ablank were the absorbance of the test sample and the blank sample after the enzymatic reaction (the background value was subtracted), and ΔAQSYQ and ΔAblank were the absorbance decrease between 0 min and 30 min of the samples. A scatter plot was generated to display the inhibition result of thrombin and ACE simultaneously. […] Moreover, artificial abnormal samples I6, I7 and I8, each with one abnormal (pre-extracted) herb, presented relatively lower inhibitions compared with I1.
Thrombin (from human plasma), ACE (from rabbit lung), FAPGG and captopril were purchased from Sigma-Aldrich (St. Louis, USA). S-2238 was obtained from Aglyco (Beijing, China). AEBSF-HCl was purchased from Selleckchem (Houston, USA). Trizma base (Tris) was obtained from Sangon Biotech (Shanghai, China) and dimethyl sulfoxide (DMSO) from J&K Scientific (Beijing, China). All other chemicals were purchased from Sinopharm Chemical (Shanghai, China) unless otherwise indicated. 0.2 M Phosphate buffer (PB, pH 6.5), and 50 mM Tris-HCl buffer (200 mM NaCl, pH 8.3) were prepared as assay buffers for thrombin and ACE, respectively.
MBs (10 mg/mL) were diluted 10 times in PB or Tris-HCl buffer, and 10 μL of the diluted MBs (1 mg/mL) were injected into one channel of the chip using a syringe infusion pump (Harvard Apparatus, USA) and retained by an external magnet. Then, 10 μL of thrombin or ACE solution was added and incubated with MBs for two hours at room temperature to form enzyme-MB complexes. The magnet was manually controlled to move MBs back and forth to enhance the ratio of reaction. Subsequently, MBs were washed twice in assay buffer and magnetically transferred to the other channel through the fluidic bridge, whose opening and closing was controlled by a pneumatic valve. Next, 10 μL of sample solutions of tested drug and 10 μL of enzymatic substrate were sequentially infused to the channel by the pump and incubated with the enzyme. When the enzymatic reaction was finished, the MBs were retained in the channel, and air was injected into the channel from the inlet using a syringe to push all the reacted solution to a 384-well plate. The absorbance of the solution was then monitored at 405 nm (for S-2238) or 340 nm (for FAPGG) using an Infinite F200 spectrophotometer (Tecan, Männedorf, Switzerland). Moreover, after detection, the reaction channel was washed three times by assay buffer to remove unbound constituents. […]

inhibition rate (for thrombin, maximum inhibition rate observed in the assay) [%] | Compound | thrombin inhibition (in words) | IC50 (for thrombin) [µM]
66.9 | O=C(O)C(O)Cc1ccc(O)c(O)c1 (stereo not shown) [Danshensu] | good thrombin inhibitions | –
– | O=C(/C=C/c1ccc(O)c2c1[C@H](C(=O)O[C@H](Cc1ccc(O)c(O)c1)C(=O)O)[C@@H](c1ccc(O)c(O)c1)O2)O[C@H](Cc1ccc(O)c(O)c1)C(=O)O [Salvianolic acid B] | good thrombin inhibitions | 81.9
